Experimental data published in US12577217B2, “15-PGDH inhibitor” (KYORIN Pharmaceutical Co., Ltd., priority 2019, dated 2026).

Target: T1, recombinant human 15-PGDH (Homo sapiens, UniProt P15428)
T1 construct: purchased R&D Systems
T1 sequence (P15428 1-266): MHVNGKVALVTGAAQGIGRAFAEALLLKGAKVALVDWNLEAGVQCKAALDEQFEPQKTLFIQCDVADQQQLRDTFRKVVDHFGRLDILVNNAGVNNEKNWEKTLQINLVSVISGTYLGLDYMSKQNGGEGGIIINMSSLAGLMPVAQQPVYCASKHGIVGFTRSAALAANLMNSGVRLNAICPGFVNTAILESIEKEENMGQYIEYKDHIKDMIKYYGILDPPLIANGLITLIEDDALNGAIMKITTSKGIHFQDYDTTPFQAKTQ
Test: 15-PGDH enzyme inhibition test
Assay type: biochemical
Conditions: 4 nM recombinant human 15-PGDH, 30 μM PGE2, 1 mM NAD+, 60 minutes after starting the reaction; read-out: IC50 Value
Procedure: 15-PGDH Enzyme Inhibition Test
A test compound and 4 nM recombinant human 15-PGDH (R&D Systems) were added, in 50 mM Tris-HCl (pH 8.0) containing 0.01% TWEEN 20 (Sigma) and 0.01% bovine gamma globulin (Sigma), to a 384-well Flat Bottom Black plate (Corning, 3820), and the resultant was allowed to stand still at room temperature for 12 minutes, and 30 μM PGE2 (Cayman Chemical) and 1 mM NAD+ (Sigma) were added thereto to start the reaction. 60 minutes after starting the reaction, measurement was performed using Synergy 2 (BioTeck) at an excitation wavelength of 340 nm and a fluorescence wavelength of 440 nm. Assuming that a fluorescence signal obtained with an assay buffer added instead of the test compound and NAD+ was 100% and that a signal obtained with NAD+ added was 0%, a concentration corresponding to 50% inhibition plotted on a concentration-reaction curve of the test compound was defined as an IC50 value. Incidentally, in the following tables, an IC50 value smaller than 10 nM was shown as +++, an IC50 value equal to or larger than 10 nM and smaller than 100 nM was shown as ++, and an IC50 value equal to or larger than 100 nM was shown as +.

Question: Which IC50 does the source give for `CCN(CC(C)O)C(=O)c1cnc2c(c1)OCCN2c1ccn2c(=O)n(C)nc2c1` (centres unmarked) [Example 8-179] here?
Answer: 10 to 100 nM

Question: How did the IC50 turn out when `CCN1Cc2cc(N3CCCc4cc(C(=O)N5CCC5)cnc43)ccc2C1=O` [Example 8-68] was run?
Answer: < 10 nM

Question: For `O=C(c1cnc2c(c1)CCCN2c1ccc2c(=O)[nH]ccc2c1)N1CCC(F)(F)CC1` [Example 1-181], which IC50 is on record?
Answer: < 10 nM

Question: With `Cn1nnnc1-c1ccc(N2CCOc3cc(C(=O)N4CCCCC4)cnc32)cc1` [Example 1-251] as the compound, how does the IC50 read?
Answer: < 10 nM

Question: With `CN1CCN(c2ccc(C(=O)O)cc2)c2ncc(C(=O)N3CCCCC3)cc21` [Example 4-21] as the compound, how does the IC50 read?
Answer: < 10 nM

Question: Which IC50 does the source give for `CC(C)(C(N)=O)c1ccc(N2CCOc3cc(C(=O)N4CCCCC4)cnc32)cc1` [Example 6-20] here?
Answer: > 100 nM

Question: With `CC1CN(C(=O)c2cnc3c(c2)OCCN3c2ccn3c(=O)n(C)nc3c2)CCC1(F)F` (centres unmarked) [Example 8-47] as the compound, how does the IC50 read?
Answer: < 10 nM

Question: Which IC50 does the source give for `CCOCn1nc2cc(N3CCCc4cc(C(=O)N5CCC(F)(F)CC5)cnc43)ccn2c1=O` [Example 1-77] here?
Answer: < 10 nM

Question: Which IC50 does the source give for `O=C(c1cnc2c(c1)CCCN2c1ccc2c(c1)CN(CC1COC1)C2=O)N1CCC(F)(F)CC1` [Example 1-177] here?
Answer: < 10 nM

Question: With `O=C(O)c1ccc(N2CCOc3cc(C(=O)N4CCCCC4)cnc32)cn1` [Example 2-38] as the compound, how does the IC50 read?
Answer: < 10 nM

Question: Which IC50 does the source give for `CN1Cc2cc(N3CCOc4cc(C(=O)N5CCC[C@@H](C(F)(F)F)C5)cnc43)ccc2C1=O` [Example 8-207] here?
Answer: < 10 nM

Question: `CCN1Cc2cc(N3CCCc4cc(C(=O)N5CCC[C@H](CF)C5)cnc43)ccc2C1=O` [Example 8-92] was tested. Which IC50 did it give?
Answer: < 10 nM

Question: Which IC50 does the source give for `Cn1nc2cc(N3CCOc4cc(C(=O)N5CC(C)(F)C5)cnc43)ccn2c1=O` [Example 8-50] here?
Answer: < 10 nM

Question: For `CCn1nc2cc(N3CCCc4cc(C(=O)N5CCC[C@H](C(F)F)C5)cnc43)ccn2c1=O` [Example 8-168], which IC50 is on record?
Answer: < 10 nM

Question: For `CCN1Cc2cc(N3CCCc4cc(C(=O)N5CCC[C@H](C)C5)cnc43)ccc2C1=O` [Example 8-90], which IC50 is on record?
Answer: < 10 nM

Question: Which IC50 does the source give for `Cn1nc2cc(N3CCOc4cc(C(=O)N5[C@@H]6CCC[C@H]5CC6)cnc43)ccn2c1=O` [Example 8-56] here?
Answer: < 10 nM

Question: How did the IC50 turn out when `C[C@H]1CCCN(C(=O)c2cnc3c(c2)OCCN3c2ccc3c(c2)CN(C)C3=O)C1` [Example 8-198] was run?
Answer: < 10 nM

Question: `CCn1nc2cc(N3CCOc4cc(C(=O)N5CCC(F)(F)CC5)cnc43)ccn2c1=O` [Example 8-211] was tested. Which IC50 did it give?
Answer: < 10 nM

Question: With `Cn1nc2cc(N3CCOc4cc(C(=O)N5CC(F)(F)C5)cnc43)ccn2c1=O` [Example 8-30] as the compound, how does the IC50 read?
Answer: < 10 nM

Question: Which IC50 does the source give for `COC(=O)C1CCCN(C(=O)c2cnc3c(c2)OCCN3c2ccn3c(=O)n(C)nc3c2)C1` (centres unmarked) [Example 8-36] here?
Answer: < 10 nM

Question: Which IC50 does the source give for `COCCOCCn1nc2cc(N3CCCc4cc(C(=O)N5CCCCC5)cnc43)ccn2c1=O` [Example 1-71] here?
Answer: < 10 nM

Question: For `Cn1nc2cc(N3CCOc4cc(C(O)C5CCC(F)(F)CC5)cnc43)ccn2c1=O` (centres unmarked) [Example 19-2], which IC50 is on record?
Answer: 10 to 100 nM

Question: With `Cn1cnc2cc(N3CCOc4cc(C(=O)N5CCCCC5)cnc43)ccc2c1=O` [Example 1-163] as the compound, how does the IC50 read?
Answer: < 10 nM

Question: `O=C(c1cnc2c(c1)OCCN2c1cccc(F)c1)N1CCCCC1` [Example 1-237] was tested. Which IC50 did it give?
Answer: < 10 nM

Question: With `CN1C(=O)C(C)(C)c2ccc(N3CCOc4cc(C(=O)N5CCCCC5)cnc43)cc21` [Example 1-248] as the compound, how does the IC50 read?
Answer: > 100 nM

Question: `O=C(c1cnc2c(c1)CCCN2c1ccc2c(c1)CN(C1COC1)C2=O)N1CCCCC1` [Example 1-66] was tested. Which IC50 did it give?
Answer: < 10 nM

Question: `CCn1nc2cc(N3CCCc4cc(C(=O)N5CCCC(F)(F)C5)cnc43)ccn2c1=O` [Example 8-164] was tested. Which IC50 did it give?
Answer: < 10 nM

Question: With `Cn1nc2cc(N3CC(C)(C)Oc4cc(C(=O)N5CCCCC5)cnc43)ccn2c1=O` [Example 1-93] as the compound, how does the IC50 read?
Answer: < 10 nM

Question: With `NC(=O)c1ccc(N2CCCc3cc(C(=O)N4CCCCC4)cnc32)cc1` [Example 6-14] as the compound, how does the IC50 read?
Answer: < 10 nM

Question: `CN(C)C(=O)c1ccc(N2CCCc3cc(C(=O)N4CCCCC4)cnc32)cc1` [Example 6-15] was tested. Which IC50 did it give?
Answer: 10 to 100 nM

Question: How did the IC50 turn out when `O=C1NCc2cc(N3CCOc4cc(C(=O)N5CCC(F)(F)CC5)cnc43)ccc21` [Example 14-6] was run?
Answer: < 10 nM

Question: With `COc1cc(N2CCOc3cc(C(=O)N4CC=CCC4)ccc32)ccc1C(=O)O` [Example 2-14] as the compound, how does the IC50 read?
Answer: < 10 nM
